Results on three compounds are retold here after patent publication US8772251B2, “Use of isothiocyanate derivatives as anti-myeloma agents” (Indena S.p.A., priority 2008, dated 2014).

Like-named read-outs stand apart in the source and are kept apart here.

The test system of assay [1] is H460 human lung tumor cell line. Description: Sensitivity of H460 cells to glucomoringin with or without myrosinase (cell growth relative to control). The class given is cell-based. To be noted: GMG 100 μM, no MYR.
Assay [2] relates to human myeloma tumor cell lines s.c. transplanted. Kind of assay: Antitumor activity in vivo in SCID mice bearing s.c. transplanted human myeloma. From the text:
In the table 3 is reported the antitumor activity of the GMG-ITC administered in vivo in SCID mice bearing human myeloma tumor cell lines s.c. transplanted.

Another assay has as its system A2780. Description: Cytotoxic activity, cell count (24 h). The class given is cell-based. An excerpt: (§1) Cytotoxic activity of the Moringa derived isothiocyanate (GMG-ITC) on a panel of human tumor cell lines.
A further assay deals with H460 S5. Description: Cytotoxic activity, cell count (24 h). The class given is cell-based. Particulars: Homo sapiens, read-out: Cell count (24 h) IC50.
Description: as §1

The test system of the next assay is H460 wt. Description: Cytotoxic activity, cell count (24 h). Type of assay: cell-based. Particulars: Homo sapiens, read-out: Cell count (24 h) IC50.
Description: as §1

The next assay deals with HCT116 p53+/+. Kind of assay: Cytotoxic activity, cell count (24 h). The class given is cell-based. To be noted: Homo sapiens, read-out: Cell count (24 h) IC50.
Description: as §1

The next assay concerns HCT116 p53−/−. Description: Cytotoxic activity, cell count (24 h). The class given is cell-based. Particulars: Homo sapiens, read-out: Cell count (24 h) IC50.
Description: as §1

The test system of another assay is HL60. Kind of assay: Cytotoxic activity, cell count (24 h). To be noted: Homo sapiens, read-out: Cell count (24 h) IC50. Type of assay: cell-based.
Description: as §1

A further assay relates to MCF7 NEO. Description: Cytotoxic activity, cell count (24 h). Type of assay: cell-based. To be noted: Homo sapiens, read-out: Cell count (24 h) IC50.
Description: as §1

Another assay deals with MCF7 π. Kind of assay: Cytotoxic activity, cell count (24 h). The class given is cell-based. Particulars: Homo sapiens, read-out: Cell count (24 h) IC50.
Description: as §1

Another assay relates to RPMI-8226. Description: Cytotoxic activity, cell count (24 h). Type of assay: cell-based. To be noted: Homo sapiens, read-out: Cell count (24 h) IC50.
Description: as §1

Assay [3] concerns human ovarian carcinoma A2780. Kind of assay: Antitumor activity in vivo against human ovarian carcinoma A2780.

Take `C[C@@H]1O[C@@H](Oc2ccc(C/C(=N/OS(=O)(=O)O)S[C@@H]3O[C@H](CO)[C@@H](O)[C@H](O)[C@H]3O)cc2)[C@H](O)[C@H](O)[C@H]1O` [GMG, glucomoringin]: the “% of cells growth relative to control” value in assay [1] (24 h recovery) is listed as 100%; in assay [1] (24 h treatment), 98%; in assay [1] (48 h recovery), 100%; in assay [1] (time 0) it was 100%. In assay [2] (p.o. q5dx2, 400 mg/kg/inj.), this compound gave a TWI % of 62%.
As to `CC1OC(Oc2ccc(CN=C=S)cc2)C(O)C(O)C1O` (centres unmarked) [GMG-ITC], the IC50 (as a rule, the point on the concentration scale where inhibition reaches its midpoint) with A2780 (Homo sapiens, A2780, 24 h, read-out: Cell count (24 h) IC50) was 15 ± 3 µM; with H460 S5 (NCI-H460, 24 h) it was 18 ± 6.7 µM; in the assay on H460 wt (NCI-H460, 24 h), 29 ± 0.8 µM; in the assay on HCT116 p53+/+ (HCT-116, 24 h), 12 ± 0.3 µM; in the assay on HCT116 p53−/− (HCT-116, 24 h) it was 13 ± 0.25 µM; with HL60 (HL-60, 24 h), 15 ± 1 µM. Besides, the IC50 in the assay on MCF7 NEO (MCF7, 24 h) was found to be 20 ± 4.4 µM; in the assay with MCF7 π (MCF7, 24 h), 21 ± 5.7 µM; in the assay with RPMI-8226 (RPMI-8226, 24 h) it was 6 ± 1 µM. Further, the TWI % stood at 70% in assay [2] (i.p. q5dx2w, 20 mg/kg/inj.) and 46% in assay [3] (i.p. q5dx2w, 20 mg/kg/inj.). Also, the antitumor activity result in assay [3] is listed as “low”.
In the case of `C[S+]([O-])CCCCN=C=S` (centres unmarked) [GRA, sulphorafane, reference compound], the half-maximal inhibitory concentration (IC50) in the assay on A2780 (Homo sapiens, A2780, 24 h; read-out: Cell count (24 h) IC50) turned out to be 18 ± 1 µM; in the assay with H460 S5 (NCI-H460, H460 S5, 24 h), 19 ± 1 µM; in the assay with H460 wt (NCI-H460, H460 wt, 24 h), 29 ± 0.5 µM; with HCT116 p53+/+ (HCT-116, HCT116 p53+/+, 24 h), 17 ± 2.3 µM; with HCT116 p53−/− (HCT-116, HCT116 p53−/−, 24 h), 18 ± 5.3 µM; in the assay with HL60 (HL-60, HL60, 24 h), 16 ± 1 µM. The IC50 in the assay on MCF7 NEO (MCF7 NEO, 24 h) was determined as 26 ± 4 µM; with MCF7 π (MCF7 π, 24 h) it was 27 ± 4 µM; in the assay on RPMI-8226 (RPMI-8226 (myeloma), 24 h) it was 8 ± 0.2 µM.
